Data from ChEMBL document CHEMBL1201862, “PubChem BioAssay data set” (2004).
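Test compounds were applied to cells in 96-well plates for 48 hours at 5 doses. At the GI50, growth is halved.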 Active and inactive are the calls of the source. Rule as the data show it: active = GI50 up to about 1.1 µM and inactive = higher.

How the values were obtained:
Assay in all cases: NCI anticancer screen, dose series, 48 h
[1] = system: 786-0
[2] = system: A498
[3] = system: A549
[4] = system: ACHN
[5] = system: BT-549
[6] = system: CAKI-1
[7] = system: COLO 205
[8] = system: DU-145
[9] = system: EKVX
[10] = system: HCC 2998
[11] = system: HCT-116
[12] = system: HCT-15
[13] = system: HOP-62
[14] = system: HT-29
[15] = system: IGROV-1
[16] = system: K562
[17] = system: KM12
[18] = system: LOX IMVI
[19] = system: M14
[20] = system: MCF7
[21] = system: MDA-MB-231
[22] = system: MDA-MB-435
[23] = system: MDA-N
[24] = system: MOLT-4
[25] = system: Malme-3M
[26] = system: NCI-H226
[27] = system: NCI-H23
[28] = system: NCI-H460
[29] = system: NCI-H522
[30] = system: NCI/ADR-RES
[31] = system: OVCAR-4
[32] = system: OVCAR-5
[33] = system: OVCAR-8
[34] = system: PC-3
[35] = system: RPMI-8226
[36] = system: RXF 393
[37] = system: SF-268
[38] = system: SF-295
[39] = system: SF-539
[40] = system: SK-MEL-28
[41] = system: SK-MEL-2
[42] = system: SK-MEL-5
[43] = system: SK-OV-3
[44] = system: SN12C
[45] = system: SNB-19
[46] = system: SNB-75
[47] = system: SR
[48] = system: SW-620
[49] = system: T47D
[50] = system: TK-10
[51] = system: U-251
[52] = system: UACC-257
[53] = system: UACC-62
[54] = system: UO-31
[55] = system: CCRF-CEM
[56] = system: HL-60
[57] = system: HOP-92
[58] = system: OVCAR-3
[59] = system: Hs-578T

For `C[C@@H]1CC[C@@H]2[C@@H](C1)O[C@@H]([C@H](C)OCc1ccccc1)SC2(C)C`, the GI50 [1] was 21.2 µM (inactive), the GI50 [2] was 19.7 µM (inactive) and the GI50 [3] was 26.3 µM (inactive). For the same compound, the GI50 [4] was 18.8 µM (inactive), the GI50 [5] was 39.4 µM (inactive) and the GI50 [6] was 34.8 µM (inactive). For the same compound, the GI50 [7] was 19.3 µM (inactive), the GI50 [8] was 37.3 µM (inactive) and the GI50 [9] was 45 µM (inactive). The GI50 [10] was 17.9 µM (inactive), the GI50 [11] was 14.7 µM (inactive) and the GI50 [12] was 27.8 µM. The GI50 [13] was 34.4 µM (inactive), the GI50 [14] was 36 µM (inactive) and the GI50 [15] was 41.8 µM (inactive). For the same compound, the GI50 [16] was 19.6 µM (inactive), the GI50 [17] was 18.5 µM (inactive) and the GI50 [18] was 18.4 µM (inactive). For the same compound, the GI50 [19] was 16.8 µM (inactive), the GI50 [20] was 16.9 µM (inactive) and the GI50 [21] was 19.7 µM (inactive). For the same compound, the GI50 [22] was 30.3 µM (inactive), the GI50 [23] was 23.7 µM (inactive) and the GI50 [24] was 18.4 µM (inactive). For the same compound, the GI50 [25] was 22.6 µM (inactive), the GI50 [26] was 18.4 µM (inactive) and the GI50 [27] was 31.8 µM (inactive). For the same compound, the GI50 [28] was 20.7 µM (inactive), the GI50 [29] was 19.7 µM (inactive) and the GI50 [30] was 25.5 µM (inactive). For the same compound, the GI50 [31] was 28.3 µM (inactive), the GI50 [32] was 16.3 µM (inactive) and the GI50 [33] was 31.5 µM (inactive). The GI50 [34] was 31.5 µM (inactive), the GI50 [35] was 17.4 µM (inactive) and the GI50 [36] was 17.6 µM (inactive). For the same compound, the GI50 [37] was 32.3 µM (inactive), the GI50 [38] was 17.5 µM (inactive) and the GI50 [39] was 29.2 µM (inactive). The GI50 [40] was 32.1 µM (inactive), the GI50 [41] was 17.5 µM (inactive) and the GI50 [42] was 18.1 µM (inactive). For the same compound, the GI50 [43] was 30.5 µM (inactive), the GI50 [44] was 18.7 µM (inactive) and the GI50 [45] was 21.3 µM (inactive). For the same compound, the GI50 [46] was 16.4 µM (inactive), the GI50 [47] was 18.2 µM (inactive) and the GI50 [48] was 18.9 µM (inactive). The GI50 [49] was 15.7 µM (inactive), the GI50 [50] was 32.1 µM (inactive) and the GI50 [51] was 17.9 µM (inactive). The GI50 [52] was 25.5 µM (inactive), the GI50 [53] was 36.4 µM (inactive) and the GI50 [54] was 14.5 µM (inactive).
For `CC(=O)O[C@H]1CC[C@@]2(C)C(=CC[C@@H]3[C@@H]2CC[C@]2(C)c4nc(Cl)ccc4C[C@@H]32)C1`, the GI50 [1] was 32 µM (inactive), the GI50 [2] was 87.3 µM (inactive) and the GI50 [3] was 52 µM (inactive). For the same compound, the GI50 [4] was 33.7 µM (inactive), the GI50 [5] was 15.2 µM (inactive) and the GI50 [6] was 66.4 µM (inactive). The GI50 [55] was 20.6 µM (inactive), the GI50 [7] was 39.1 µM (inactive) and the GI50 [8] was 80.4 µM (inactive). For the same compound, the GI50 [9] was 25.2 µM (inactive), the GI50 [10] was 45 µM (inactive) and the GI50 [11] was 32.6 µM (inactive). The GI50 [12] was 40 µM, the GI50 [56] was 33.8 µM (inactive) and the GI50 [13] was 45.4 µM (inactive). For the same compound, the GI50 [57] was 54.7 µM (inactive), the GI50 [14] was 36.8 µM (inactive) and the GI50 [15] was 89.9 µM (inactive). For the same compound, the GI50 [16] was 31.1 µM (inactive), the GI50 [17] was 43.3 µM (inactive) and the GI50 [18] was 40.9 µM (inactive). The GI50 [19] was 60 µM (inactive), the GI50 [20] was 0.944 µM (active) and the GI50 [21] was > 100 µM (inactive). For the same compound, the GI50 [22] was 41.4 µM (inactive), the GI50 [23] was 29.3 µM (inactive) and the GI50 [24] was 30.8 µM (inactive). The GI50 [25] was 61.1 µM (inactive), the GI50 [26] was > 100 µM (inactive) and the GI50 [27] was 0.867 µM (active). For the same compound, the GI50 [28] was 33.4 µM (inactive), the GI50 [29] was 24.5 µM (inactive) and the GI50 [30] was 47.4 µM (inactive). For the same compound, the GI50 [58] was 27.9 µM (inactive), the GI50 [31] was 38.8 µM (inactive) and the GI50 [32] was 38.1 µM (inactive). The GI50 [33] was 37.2 µM (inactive), the GI50 [34] was 50 µM (inactive) and the GI50 [36] was 33.3 µM (inactive). The GI50 [37] was 49.8 µM (inactive), the GI50 [38] was 24.7 µM (inactive) and the GI50 [40] was 45.6 µM (inactive). The GI50 [42] was 30.8 µM (inactive), the GI50 [43] was > 100 µM (inactive) and the GI50 [44] was 41.7 µM (inactive). The GI50 [45] was 93.8 µM (inactive), the GI50 [46] was 33.9 µM (inactive) and the GI50 [47] was 37 µM (inactive). For the same compound, the GI50 [48] was 59 µM (inactive), the GI50 [49] was 44.6 µM (inactive) and the GI50 [50] was 54.3 µM (inactive). For the same compound, the GI50 [51] was 97.1 µM (inactive), the GI50 [52] was 32.9 µM (inactive) and the GI50 [53] was 18.2 µM (inactive). The GI50 [54] was 64.6 µM (inactive).
For `COC(=O)[C@@](NC(=O)OCc1ccccc1)([C@H](C)O)C(F)(F)F`, the GI50 [1] was > 100 µM (inactive), the GI50 [2] was > 100 µM (inactive) and the GI50 [3] was > 100 µM (inactive). The GI50 [4] was > 100 µM (inactive), the GI50 [5] was > 100 µM (inactive) and the GI50 [6] was > 100 µM (inactive). The GI50 [55] was 57.4 µM (inactive), the GI50 [7] was > 100 µM (inactive) and the GI50 [8] was > 100 µM (inactive). The GI50 [9] was > 100 µM (inactive), the GI50 [10] was > 100 µM (inactive) and the GI50 [11] was > 100 µM (inactive). The GI50 [12] was greater than 100 µM, the GI50 [56] was > 100 µM (inactive) and the GI50 [13] was > 100 µM (inactive). The GI50 [57] was > 100 µM (inactive), the GI50 [14] was > 100 µM (inactive) and the GI50 [59] was > 100 µM (inactive). The GI50 [15] was > 100 µM (inactive), the GI50 [16] was > 100 µM (inactive) and the GI50 [17] was > 100 µM (inactive). For the same compound, the GI50 [18] was > 100 µM (inactive), the GI50 [19] was > 100 µM (inactive) and the GI50 [21] was > 100 µM (inactive). For the same compound, the GI50 [22] was > 100 µM (inactive), the GI50 [24] was > 100 µM (inactive) and the GI50 [25] was > 100 µM (inactive). The GI50 [26] was > 100 µM (inactive), the GI50 [27] was > 100 µM (inactive) and the GI50 [28] was > 100 µM (inactive). For the same compound, the GI50 [29] was > 100 µM (inactive), the GI50 [30] was > 100 µM (inactive) and the GI50 [58] was > 100 µM (inactive). For the same compound, the GI50 [31] was > 100 µM (inactive), the GI50 [32] was > 100 µM (inactive) and the GI50 [33] was > 100 µM (inactive). The GI50 [34] was > 100 µM (inactive), the GI50 [35] was > 100 µM (inactive) and the GI50 [36] was 53.5 µM (inactive). The GI50 [37] was > 100 µM (inactive), the GI50 [38] was > 100 µM (inactive) and the GI50 [40] was > 100 µM (inactive). The GI50 [41] was > 100 µM (inactive), the GI50 [42] was > 100 µM (inactive) and the GI50 [43] was > 100 µM (inactive). The GI50 [45] was > 100 µM (inactive), the GI50 [46] was > 100 µM (inactive) and the GI50 [47] was 50.1 µM (inactive). The GI50 [48] was > 100 µM (inactive), the GI50 [49] was > 100 µM (inactive) and the GI50 [50] was > 100 µM (inactive). For the same compound, the GI50 [51] was > 100 µM (inactive), the GI50 [52] was > 100 µM (inactive) and the GI50 [53] was > 100 µM (inactive). The GI50 [54] was > 100 µM (inactive).
